Reference: US20230407243A1, “GENETIC PLATFORM TO INVESTIGATE THE FUNCTIONS OF BACTERIAL DRUG EFFLUX PUMPS” (priority 2022, published 2023)
Read-outs that look alike come from different tables or passages of the source.

What was measured:
Format in all cases: cell-based, Escherichia coli
EKO-35 araC::acrBD408A = assay: MIC susceptibility profiling, efflux platform; settings: for Fold change of MICs: EKO-35 araC::acrBD408A compared to EKO-35
How it was run: (§1)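 Overnight LB cultures resuspended in PBS to OD600 ~1.0, diluted 1/2000 into MHB II, and added to 2-fold serial compound dilutions in duplicate with DMSO controls. Incubated 18 h at 37° C. with 900 rpm shaking; OD600 read before and after, background subtracted, to derive MIC.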

EKO-35 araC::acrEF = assay: MIC susceptibility profiling, efflux platform; settings: for Fold change of MICs: EKO-35 araC::acrEF compared to EKO-35; for Minimum Inhibitory Concentration, EKO-35 araC::acrEF: Table 13A, non-porinated, technical duplicate
How it was run: as §1

EKO-35 araC::emrAB = assay: MIC susceptibility profiling, efflux platform; settings: for Fold change of MICs: EKO-35 araC::emrAB compared to EKO-35
How it was run: as §1

EKO-35 araC::emrKY = assay: MIC susceptibility profiling, efflux platform; settings: for Fold change of MICs: EKO-35 araC::emrKY compared to EKO-35
How it was run: as §1

EKO-35 araC::macAB = assay: MIC susceptibility profiling, efflux platform; settings: for Fold change of MICs: EKO-35 araC::macAB compared to EKO-35
How it was run: as §1

EKO-35 araC::mdtEF = assay: MIC susceptibility profiling, efflux platform; settings: for Fold change of MICs: EKO-35 araC::mdtEF compared to EKO-35
How it was run: as §1

wild-type (WT) K-12-Pore = assay: microbe, parasite or virus in culture; settings: technical duplicate; for MIC: Escherichia coli
How it was run: (§2)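 E. coli strains carrying a genomically integrated constitutive fhuA ΔC/Δ4L pore were grown 18 h in LB at 37 °C, then diluted 1/2000 in MHB II from OD600 ~1.0. Compounds were tested in duplicate, 2-fold serial titration, for 18 h at 37 °C with shaking. MIC came from OD600 with the pre-incubation background subtracted.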

ΔtolC-Pore = assay: microbe, parasite or virus in culture; settings: for Minimum inhibitory concentration (MIC), Pore ΔtolC: Table 10, with pore; for Minimum inhibitory concentration (MIC), Pore ΔtolC / Minimum inhibitory concentration, ΔtolC-Pore: technical duplicate; for Minimum inhibitory concentration, ΔtolC-Pore: Table 14A, porinated
How it was run: as §2

EKO-35 araC::acrB Pore = assay: MIC susceptibility profiling, porinated efflux platform; settings: for Fold changes of MICs: EKO-35 araC::acr-B Pore compared to EKO-35-Pore; for Minimum inhibitory concentration, EKO-35 araC::acrB Pore: Table 14A, porinated, technical duplicate
How it was run: as §2

[1] = test system: EKO-35 araC::acrBD408A Pore; assay: as above; settings: for Fold changes of MICs: EKO-35 araC::acrBD408A Pore compared to EKO-35-Pore
How it was run: as §2

EKO-35 araC::acrD Pore = assay: as above; settings: for Fold changes of MICs: EKO-35 araC::acrD Pore compared to EKO-35-Pore
How it was run: as §2

EKO-35 araC::acrEF Pore = assay: as above; settings: for Fold changes of MICs: EKO-35 araC::acrEF Pore compared to EKO-35-Pore
How it was run: as §2

EKO-35 araC::emrAB Pore = assay: as above; settings: for Fold changes of MICs: EKO-35 araC::emrAB Pore compared to EKO-35-Pore
How it was run: as §2

EKO-35 araC::emrKY Pore = assay: as above; settings: for Fold changes of MICs: EKO-35 araC::emrKY Pore compared to EKO-35-Pore
How it was run: as §2

EKO-35 araC::macAB Pore = assay: as above; settings: for Fold changes of MICs: EKO-35 araC::macAB Pore compared to EKO-35-Pore
How it was run: as §2

EKO-35 araC::mdtBC Pore = assay: as above; settings: for Fold changes of MICs: EKO-35 araC::mdtBC Pore compared to EKO-35-Pore
How it was run: as §2

EKO-35 araC::mdtEF Pore = assay: as above; settings: for Fold changes of MICs: EKO-35 araC::mdtEF Pore compared to EKO-35-Pore; for Minimum inhibitory concentration, EKO-35 araC::mdtEF Pore: Table 14A, porinated, technical duplicate
How it was run: as §2

EKO-35 araC::mexCD Pore = assay: as above; settings: for Fold changes of MICs: EKO-35 araC::mexCD Pore compared to EKO-35-Pore
How it was run: as §2

[2] = Table 13B, non-porinated, technical duplicate
[3] = Table 13A, non-porinated, technical duplicate
[4] = EKO-35 araC::acrBD408A Pore, technical duplicate
[5] = Table 14A, porinated, technical duplicate
[6] = EKO-35 araC::emrAB Pore, technical duplicate
[7] = EKO-35 araC::emrKY Pore, technical duplicate
[8] = EKO-35 araC::macAB Pore, technical duplicate
[9] = EKO-35 araC::mdtBC Pore, technical duplicate
[10] = EKO-35 araC::mexCD Pore, technical duplicate

| Structure (SMILES) | Fold change of MICs (EKO-35 araC::acrBD408A) | Minimum Inhibitory Concentration, EKO-35 araC::acrBD408A (EKO-35 araC::acrBD408A; [2]) | Fold change of MICs (EKO-35 araC::acrEF) | Minimum Inhibitory Concentration, EKO-35 araC::acrEF (EKO-35 araC::acrEF) | Fold change of MICs (EKO-35 araC::emrAB) | Minimum Inhibitory Concentration, EKO-35 araC::emrAB (EKO-35 araC::emrAB; [2]) | Fold change of MICs (EKO-35 araC::emrKY) | Fold change of MICs (EKO-35 araC::macAB) | Fold change of MICs (EKO-35 araC::mdtEF) | Minimum inhibitory concentration (MIC), Pore ΔtolC (ΔtolC-Pore) | Fold changes of MICs (EKO-35 araC::acrB Pore) | Fold changes of MICs [1] | Fold changes of MICs (EKO-35 araC::acrD Pore) | Fold changes of MICs (EKO-35 araC::acrEF Pore) | Fold changes of MICs (EKO-35 araC::emrAB Pore) | Fold changes of MICs (EKO-35 araC::emrKY Pore) | Fold changes of MICs (EKO-35 araC::macAB Pore) | Fold changes of MICs (EKO-35 araC::mdtBC Pore) | Fold changes of MICs (EKO-35 araC::mdtEF Pore) | Fold changes of MICs (EKO-35 araC::mexCD Pore) | further results |
| --- | --- | --- | --- | --- | --- | --- | --- | --- | --- | --- | --- | --- | --- | --- | --- | --- | --- | --- | --- | --- | --- |
| N#Cc1ccc(-c2c(NC(=O)C(Cl)Cl)oc(-c3cccs3)c2C#N)cc1 [compound 2] | 1 fold | 320 µg/mL | 1 fold | 320 µg/mL | 1 fold | 320 µg/mL | 1 fold | 1 fold | 1 fold | 1.25 µg/mL | 1 fold | 1 fold | 1 fold | 1 fold | 1 fold | 1 fold | 1 fold | 1 fold | 1 fold | 1 fold | Minimum Inhibitory Concentration, EKO-35 araC::emrKY (EKO-35 araC::emrKY; [2]): 320 µg/mL; Minimum Inhibitory Concentration, EKO-35 araC::macAB (EKO-35 araC::macAB; [2]): 320 µg/mL; Minimum Inhibitory Concentration, EKO-35 araC::mdtEF (EKO-35 araC::mdtEF; [3]): 320 µg/mL; Minimum inhibitory concentration (MIC), Pore K-12 (wild-type (WT) K-12-Pore; Table 10, with pore): 320 µg/mL; Minimum inhibitory concentration, K-12 (WT)-Pore (wild-type (WT) K-12-Pore; Table 14A, porinated): 320 µg/mL; Minimum inhibitory concentration, ΔtolC-Pore (ΔtolC-Pore): 1.25 µg/mL; Minimum inhibitory concentration, EKO-35 araC::acrB Pore (EKO-35 araC::acrB Pore): 320 µg/mL; Minimum inhibitory concentration [1, 4]: 320 µg/mL; Minimum inhibitory concentration, EKO-35 araC::acrD Pore (EKO-35 araC::acrD Pore; [5]): 320 µg/mL; Minimum inhibitory concentration, EKO-35 araC::acrEF Pore (EKO-35 araC::acrEF Pore; [5]): 320 µg/mL; Minimum inhibitory concentration (EKO-35 araC::emrAB Pore; [6]): 320 µg/mL; Minimum inhibitory concentration (EKO-35 araC::emrKY Pore; [7]): 320 µg/mL; Minimum inhibitory concentration (EKO-35 araC::macAB Pore; [8]): 320 µg/mL; Minimum inhibitory concentration (EKO-35 araC::mdtBC Pore; [9]): 320 µg/mL; Minimum inhibitory concentration, EKO-35 araC::mdtEF Pore (EKO-35 araC::mdtEF Pore): 320 µg/mL; Minimum inhibitory concentration (EKO-35 araC::mexCD Pore; [10]): 320 µg/mL |
| O=C(Nc1cccc(Oc2c(F)c(F)c(F)c(F)c2F)c1)c1ccccc1 [compound 1] | 1 fold | 320 µg/mL | 1 fold | 320 µg/mL | 1 fold | 320 µg/mL | 1 fold | 1 fold | 1 fold | 10 µg/mL | 1 fold | 1 fold | 1 fold | 1 fold | 1 fold | 1 fold | 1 fold | 1 fold | 1 fold | 1 fold | Minimum Inhibitory Concentration, EKO-35 araC::emrKY (EKO-35 araC::emrKY; [2]): 320 µg/mL; Minimum Inhibitory Concentration, EKO-35 araC::macAB (EKO-35 araC::macAB; [2]): 320 µg/mL; Minimum Inhibitory Concentration, EKO-35 araC::mdtEF (EKO-35 araC::mdtEF; [3]): 320 µg/mL; Minimum inhibitory concentration (MIC), Pore K-12 (wild-type (WT) K-12-Pore; Table 10, with pore): 320 µg/mL; Minimum inhibitory concentration, K-12 (WT)-Pore (wild-type (WT) K-12-Pore; Table 14A, porinated): 320 µg/mL; Minimum inhibitory concentration, ΔtolC-Pore (ΔtolC-Pore): 10 µg/mL; Minimum inhibitory concentration, EKO-35 araC::acrB Pore (EKO-35 araC::acrB Pore): 320 µg/mL; Minimum inhibitory concentration [1, 4]: 320 µg/mL; Minimum inhibitory concentration, EKO-35 araC::acrD Pore (EKO-35 araC::acrD Pore; [5]): 320 µg/mL; Minimum inhibitory concentration, EKO-35 araC::acrEF Pore (EKO-35 araC::acrEF Pore; [5]): 320 µg/mL; Minimum inhibitory concentration (EKO-35 araC::emrAB Pore; [6]): 320 µg/mL; Minimum inhibitory concentration (EKO-35 araC::emrKY Pore; [7]): 320 µg/mL; Minimum inhibitory concentration (EKO-35 araC::macAB Pore; [8]): 320 µg/mL; Minimum inhibitory concentration (EKO-35 araC::mdtBC Pore; [9]): 320 µg/mL; Minimum inhibitory concentration, EKO-35 araC::mdtEF Pore (EKO-35 araC::mdtEF Pore): 320 µg/mL; Minimum inhibitory concentration (EKO-35 araC::mexCD Pore; [10]): 320 µg/mL |
| CO[C@@H]1[C@@H](OC(N)=O)[C@@H](O)[C@H](Oc2ccc3c(O)c(NC(=O)c4ccc(O)c(CC=C(C)C)c4)c(=O)oc3c2C)OC1(C)C [novobiocin] | 1 fold | – | 128 fold | – | 8 fold | – | 1 fold | 1 fold | 16 fold | 0.391 µg/mL | 512 fold | 1 fold | 32 fold | 32 fold | 8 fold | 1 fold | 1 fold | 4 fold | 16 fold | 4 fold | MIC (EKO-35 araC::acrBD408A; Escherichia coli, Table 13B, non-porinated, technical duplicate, read-out: Minimum Inhibitory Concentration, EKO-35 araC::acrBD408A): 3.12 µg/mL; MIC (EKO-35 araC::emrAB; Escherichia coli, Table 13B, non-porinated, technical duplicate, read-out: Minimum Inhibitory Concentration, EKO-35 araC::emrAB): 25 µg/mL; MIC (EKO-35 araC::emrKY; Escherichia coli, Table 13B, non-porinated, technical duplicate, read-out: Minimum Inhibitory Concentration, EKO-35 araC::emrKY): 3.12 µg/mL; MIC (EKO-35 araC::macAB; Escherichia coli, Table 13B, non-porinated, technical duplicate, read-out: Minimum Inhibitory Concentration, EKO-35 araC::macAB): 1.56 µg/mL; MIC (EKO-35 araC::mdtEF; Escherichia coli, Table 13A, non-porinated, technical duplicate, read-out: Minimum Inhibitory Concentration, EKO-35 araC::mdtEF): 50 µg/mL; MIC (wild-type (WT) K-12-Pore; Table 10, with pore, read-out: Minimum inhibitory concentration (MIC), Pore K-12): 12.5 µg/mL; MIC (wild-type (WT) K-12-Pore; Table 14A, porinated, read-out: Minimum inhibitory concentration, K-12 (WT)-Pore): 12.5 µg/mL; MIC (ΔtolC-Pore; Escherichia coli, 18 h, read-out: Minimum inhibitory concentration, ΔtolC-Pore): 0.391 µg/mL; MIC ([1]; Escherichia coli, EKO-35 araC::acrBD408A Pore, technical duplicate, read-out: Minimum inhibitory concentration): 0.391 µg/mL; MIC (EKO-35 araC::acrD Pore; Escherichia coli, Table 14A, porinated, technical duplicate, read-out: Minimum inhibitory concentration, EKO-35 araC::acrD Pore): 25 µg/mL; MIC (EKO-35 araC::acrEF Pore; Escherichia coli, Table 14A, porinated, technical duplicate, read-out: Minimum inhibitory concentration, EKO-35 araC::acrEF Pore): 25 µg/mL; MIC (EKO-35 araC::emrAB Pore; Escherichia coli, EKO-35 araC::emrAB Pore, technical duplicate, read-out: Minimum inhibitory concentration): 6.25 µg/mL; MIC (EKO-35 araC::emrKY Pore; Escherichia coli, EKO-35 araC::emrKY Pore, technical duplicate, read-out: Minimum inhibitory concentration): 0.781 µg/mL; MIC (EKO-35 araC::macAB Pore; Escherichia coli, EKO-35 araC::macAB Pore, technical duplicate, read-out: Minimum inhibitory concentration): 0.781 µg/mL; MIC (EKO-35 araC::mdtBC Pore; Escherichia coli, EKO-35 araC::mdtBC Pore, technical duplicate, read-out: Minimum inhibitory concentration): 3.12 µg/mL; MIC (EKO-35 araC::mexCD Pore; Escherichia coli, EKO-35 araC::mexCD Pore, technical duplicate, read-out: Minimum inhibitory concentration): 3.12 µg/mL |
